{"source": "patent US5536723A", "about": "“S-nitroso derivatives of hydrazinoacetic acids, 1-[(acylthio and (mercapto)-1-oxoalkyl]-1,2,34-Tetrahydroquinoline-2-carboxylic acids and alanyl prolines and isoquinolines” (Brigham & Women's Hospital, priority 1994, dated 1996)", "key": {"[1]": {"system": "soluble guanylate cyclase", "details": "Ignarro 1980; cited from earlier work"}, "[2]": {"system": "guanylate cyclase in arterial smooth muscle", "details": "Horowitz 1983; cited from earlier work"}, "[3]": {"system": "bovine femoral artery, response to bradykinin", "experiment": "response of the bovine femoral artery to bradykinin", "description": "(§1) Blood Vessel Preparation. Bovine coronary or femoral arteries were obtained from an abattoir immediately after sacrifice of two- to four-week-old calves. Immediately after removal, the vessel was placed in ice-cold physiologic salt solution (PSS) containing 118.3 mM NaCl, 4.7 mM KCl, 2.5 mM CaCl2, 1.2 mM MgSO4, 1.2 mM KH2 PO4, 25.0 mM NaHCO3, 11.1 mM glucose, and 0.026 mM calcium disodium (ethylenedinitrilo)-tetraacetate. The vessels were then cleaned of adventitial tissue and cut into rings of approximately 5 mm lengths. When called for by the protocol, endothelium was removed from a ring by gently rubbing the luminal surface with a watchmaker's forceps. Vascular rings with intact endothelium were then suspended in organ chambers containing 25 ml of PSS at 37° aerated with 95% O2 -5% CO2. The rings were connected to force transducers (Grass FT03C, Quincy, Mass.) and changes in isometric force recorded continuously (Grass Polygraph Model 79B) over a period of 90 minutes. The optimal length-tension relationship was determined for each ring by observing the response to 10^-6 M norepinephrine after increments in tension of 0.5 gm. The functional integrity of the endothelium was assessed by contracting the vessel with 10^-6 M norepinephrine and then observing the response to 3×10^-7 M acetylcholine chloride.\nIn the bovine femoral artery contracted with a concentration of norepinephrine inducing a half-maximal response, bradykinin induced a biphasic response."}, "platelet aggregation": {"system": "platelet aggregation", "details": "Loscalzo 1985; cited from earlier work"}, "bovine femoral artery": {"system": "bovine femoral artery", "experiment": "relaxation of isolated bovine femoral artery rings contracted with norepinephrine", "description": "FIG. 2 depicts a graph showing the effect of S-nitrosocaptopril on the contraction of bovine femoral arteries to norepinephrine.\nas §1\nVascular ring segments with intact endothelium were […] contracted with a concentration of norepinephrine inducing a half-maximal response. After a stable contraction had been achieved, the tissue was exposed to increasing concentrations of S-nitrosocaptopril in cumulative half-log increments. […] The apparent IC50 is approximately 1 μM."}, "bovine coronary artery": {"system": "bovine coronary artery", "experiment": "relaxation of isolated bovine coronary artery rings contracted with potassium chloride", "details": "methylene blue 10^-5 M; FIG. 4", "text": "FIG. 5 depicts a graph showing the relaxation to sodium nitroprusside in the bovine coronary artery in the presence (o; n=7) or absence (; n:12) of a subthreshhold dose of S-nitrosocaptopril. The data are expressed as a percentage of the initial tension generated by potassium chloride (4×10^-2 M; coronary arteries) and are shown as mean ±SEM in each group.\nas §1\nThus, to study vasodilating agents in this tissue the vessels were first contracted with potassium chloride (40 mM). Relaxations are expressed as a percent of the concentration to 40 mM potassium chloride.\nRelaxations to S-nitrosocaptopril were inhibited by the antagonist of soluble guanylate cyclase, methylene blue (FIG. 4). Sodium nitroprusside induced dose-dependent relaxations of contractions to potassium chloride. The relaxation to sodium nitroprusside was inhibited by subthreshold doses of S-nitrosocaptopril (FIG. 5)."}, "platelets": {"system": "platelets", "experiment": "platelet aggregation in PRP induced by ADP", "assay_type": "cell-based, human", "details": "11 μM ADP", "description": "FIG. 7 depicts a graph showing the effect of S-nitrosocaptopril on platelet aggregation. Platelets in PRP were incubated with S-nitrosocaptopril over a range of concentrations for three minutes, after which ADP was added to a final concentration of 11 uM. The maximal rate of aggregation was measured and plotted as a percentage of that observed in the absence of S-nitrosocaptopril. Each point represents the mean ±SEM of five experiments each performed in duplicate.\nPlatelets. Volunteers who had not ingested acetylsalicylic acid for at least ten days provided venous blood within one hour of use. […] Platelet counts were determined using a Coulter counter (Model ZM; Coulter Electronics, Hialeah, Fla.) and adjusted with platelet-poor plasma (PPP) to 1.5×10^8 platelets/ml prior to use.\nPlatelet Aggregation. Platelet aggregation was monitored using a standard nephelometric technique (Born and Cross, J. Physiol (London) 168:178-195 (1963)) in which PRP was incubated at 37° with a final concentration of 11 μM ADP and stirred at 900 rpm in a Payton dual channel aggregometer (Payton Associates, Inc., Buffalo, N.Y.). Aggregation was quantitated by measuring either the maximal rate of change of light transmittance or the extent of change of light transmittance. […]"}, "[4]": {"experiment": "arterial pressure in the anesthetized rabbit", "assay_type": "in vivo", "details": "1 mM solution infused in an ear vein, 0.02 to 2.2 ml/min", "description": "A 1 mM solution of S-nitrosocaptopril was infused in an ear vein of the rabbit at rates from 0.02 to 2.2 ml/min and the phasic and mean arterial pressure recorded in the femoral artery."}, "[5]": {"system": "bovine femoral artery, contraction to angiotensin I", "experiment": "contraction of the bovine femoral artery to angiotensin I", "description": "The data are expressed as a percentage of the maximal response to norepinephrine (10^-6 M) and are shown as mean ±SEM in each group (n=7).\nas §1"}}, "note": "“Also recorded” adds a separate entry of the source. Peptide text beside a SMILES is read from it.", "data": [{"smiles": "N[C@@H](CCC(=O)N[C@@H](CSN=O)C(=O)NCC(=O)O)C(=O)O", "note": "[S-nitrosothiol of glutathione]", "values": [{"measurement": "activation of soluble guanylate cyclase (in words)", "setting": "[1]", "result": "capable of activating soluble guanylate cyclase"}, {"measurement": "activation of guanylate cyclase in arterial smooth muscle (in words)", "setting": "[2]", "result": "potent activators of guanylate cyclase"}]}, {"smiles": "NC(N)=NCCC[C@H](NC(=O)[C@H](Cc1ccccc1)NC(=O)[C@@H]1CCCN1C(=O)[C@H](CO)NC(=O)[C@H](Cc1ccccc1)NC(=O)CNC(=O)[C@@H]1CCCN1C(=O)[C@@H]1CCCN1C(=O)[C@@H](N)CCCN=C(N)N)C(=O)O", "note": "[bradykinin] (H-RPPGFSPFR-OH)", "values": [{"measurement": "response to bradykinin at higher concentrations (in words)", "setting": "[3]; norepinephrine-contracted, higher concentrations", "result": "increase in tension which was not affected by removal of the endothelium"}, {"measurement": "response to bradykinin at lower concentrations (in words)", "setting": "[3]; norepinephrine-contracted, lower concentrations", "result": "relaxations that were abolished by removal of the endothelium"}]}, {"smiles": "CC(=O)N[C@@H](CSN=O)C(=O)O", "note": "[S-nitroso-N-acetyl cysteine]", "values": [{"measurement": "inhibition of platelet aggregation (in words)", "setting": "platelet aggregation", "result": "extremely potent inhibitor of platelet aggregation"}]}, {"smiles": "CC(C)(SN=O)C(N)C(=O)O", "note": "(stereo not drawn) [S-nitrosothiol of penicillamine]", "values": [{"measurement": "activation of soluble guanylate cyclase (in words)", "setting": "[1]", "result": "capable of activating soluble guanylate cyclase"}, {"measurement": "activation of guanylate cyclase in arterial smooth muscle (in words)", "setting": "[2]", "result": "potent activators of guanylate cyclase"}]}, {"smiles": "O=C1O[C@H]([C@@H](O)CO)C(O)=C1O", "note": "[Ascorbate]", "values": [{"measurement": "activation of guanylate cyclase in arterial smooth muscle (in words)", "setting": "[2]", "result": "totally ineffective"}]}, {"smiles": "CN(C)c1ccc2nc3ccc(=[N+](C)C)cc-3sc2c1", "note": "[methylene blue]", "values": [{"measurement": "effect of methylene blue on relaxations to S-nitrosocaptopril, femoral artery (in words)", "setting": "bovine femoral artery; methylene blue 10^-5 M, FIG. 4", "result": "significantly less than control (p<0.05)"}, {"measurement": "effect of methylene blue on relaxations to S-nitrosocaptopril, coronary artery (in words)", "setting": "bovine coronary artery", "result": "significantly less than control (p<0.05); also recorded: inhibited"}]}, {"smiles": "C[C@H](CS)C(=O)N1CCCC1C(=O)O", "note": "(stereo in doubt) [captopril, D-3-mercapto-2-methylpropanoyl-L-proline]", "values": [{"measurement": "relaxation response (in words)", "setting": "bovine femoral artery; norepinephrine-contracted, FIG. 2", "result": "no relaxation response"}, {"measurement": "inhibitory effect on platelet aggregation (in words)", "setting": "platelets", "result": "no inhibitory effect"}, {"measurement": "effect on blood pressure (in words)", "setting": "[4]", "result": "no effect on blood pressure"}, {"measurement": "inhibition of contractions to angiotensin I, S-nitrosocaptopril versus captopril (in words)", "setting": "[5]", "result": "equally inhibited contractions to angiotensin I"}, {"measurement": "effect on the response to bradykinin (in words)", "setting": "[3]; 10^-6 M", "result": "Neither response to bradykinin was affected"}]}, {"smiles": "O=N[O-].[Na+]", "note": "[NaNO2]", "values": [{"measurement": "effect on blood pressure (in words)", "setting": "[4]", "result": "no effect on blood pressure"}]}, {"smiles": "NC(CSN=O)C(=O)O", "note": "(stereo not drawn) [S-nitrosothiol of cysteine]", "values": [{"measurement": "activation of soluble guanylate cyclase (in words)", "setting": "[1]", "result": "capable of activating soluble guanylate cyclase"}, {"measurement": "activation of guanylate cyclase in arterial smooth muscle (in words)", "setting": "[2]", "result": "potent activators of guanylate cyclase"}]}]}
